Assay results published in US7851467B2, “Carbamate compounds as 5-HT4 receptor agonists” (Theravance, Inc., priority 2005, dated 2010).

Experiments:
[1] = test system: Caco-2 (colon, adenocarcinoma; human) cell monolayer; experiment: Caco-2 permeation assay (in vitro model of oral bioavailability); format: in vitro ADME; conditions: 100 μM test compound, 37° C., 60 min
Protocol: Assay 5: In Vitro Model of Oral Bioavailability: Caco-2 Permeation Assay
The Caco-2 permeation assay was performed to model the ability of test compounds to pass through the intestine and get into the blood stream after oral administration. The rate at which test compounds in solution permeate a cell monolayer designed to mimic the tight junction of human small intestinal monolayers was determined.
Caco-2 (colon, adenocarcinoma; human) cells were obtained from ATCC (American Type Culture Collection; Rockville, Md.). For the permeation study, cells were seeded at a density of 63,000 cells/cm^2 on pre-wetted transwells polycarbonate filters (Costar; Cambridge, Mass.). A cell monolayer was formed after 21 days in culture. Following cell culture in the transwell plate, the membrane containing the cell monolayer was detached from the transwell plate and inserted into the diffusion chamber (Costar; Cambridge, Mass.). The diffusion chamber was inserted into the heating block which was equipped with circulating external, thermostatically regulated 37° C. water for temperature control. […]
The permeation study was performed with test compound concentrations at 100 μM and with ^14C-mannitol to monitor the integrity of the monolayer. […] Samples were analyzed by HPLC or liquid scintillation counting for test compound and mannitol concentrations. The permeation coefficient (Kp) in cm/sec was calculated. […]

human 5-HT4(c) receptor = target: T1, human 5-HT4(c) receptor (Homo sapiens, UniProt Q13639); experiment: Whole-cell cAMP accumulation flashplate assay with HEK-293 cells expressing human 5-HT4(c) receptors; format: cell-based; conditions: cell line (1) having a density of about 0.5-0.6 μmol/mg protein, read-out: pEC50 value (converted)
T1 construct: expressed in transfected cells; host or cells: HEK-293
Protocol: Assay 3: Whole-Cell cAMP Accumulation Flashplate Assay with HEK-293 Cells Expressing Human 5-HT4(c) Receptors
In this assay, the functional potency of a test compound was determined by measuring the amount of cyclic AMP produced when HEK-293 cells expressing 5-HT4 receptors were contacted with different concentrations of test compound.
HEK-293 (human embryonic kidney) cells stably-transfected with cloned human 5-HT4(c) receptor cDNA were prepared expressing the receptor at two different densities: (1) at a density of about 0.5-0.6 pmol/mg protein, as determined using a [^3H]-GR113808 membrane radioligand binding assay, and (2) at a density of about 6.0 pmol/mg protein. […]
Cells were grown to roughly 60-80% confluency. […] The cells were counted with a Coulter counter (count above 8 μm, flask yield was 1-2×10^7 cells/flask). […]
Cells were grown and prepared as described above. […] Bound radioactivity was quantified by scintillation proximity spectroscopy using the Topcount (Packard BioScience Co., Meriden, Conn.).
The amount of cAMP produced per mL of reaction was extrapolated from the cAMP standard curve, according to the instructions provided in the manufacturer's user manual. Data were analyzed by nonlinear regression analysis with the GraphPad Prism Software package using the 3-parameter sigmoidal dose-response model (slope constrained to unity). […]

T1 sequence (Q13639 1-380 isoform Q13639-4): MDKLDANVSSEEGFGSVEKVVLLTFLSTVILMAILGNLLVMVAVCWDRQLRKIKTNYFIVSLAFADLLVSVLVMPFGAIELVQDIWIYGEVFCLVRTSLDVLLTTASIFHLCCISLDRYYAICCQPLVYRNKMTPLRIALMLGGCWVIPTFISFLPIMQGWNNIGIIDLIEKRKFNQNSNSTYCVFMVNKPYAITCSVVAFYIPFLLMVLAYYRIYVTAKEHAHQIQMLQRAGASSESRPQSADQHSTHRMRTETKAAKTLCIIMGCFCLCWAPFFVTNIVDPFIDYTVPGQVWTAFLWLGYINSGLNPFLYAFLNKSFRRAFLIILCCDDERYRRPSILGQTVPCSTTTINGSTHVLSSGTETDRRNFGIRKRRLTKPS

CC(C)n1c(=O)n(C(=O)N[C@H]2C[C@H]3CC[C@@H](C2)N3CCCOC(=O)N2CCN(C(=O)C3CCCO3)CC2)c2ccccc21 (stereo partly drawn) [Example 1, 4-(tetrahydrofuran-2-carbonyl)piperazine-1-carboxylic acid 3-{(1S,3R,5R)-3-[(3-isopropyl-2-oxo-2,3-dihydrobenzoimidazole-1-carbonyl)amino]-8-aza-bicyclo[3.2.1]oct-8-yl}propyl ester]
Kp value (permeation coefficient) [1]: 60 ×10⁻⁶ cm/s
EC50 (human 5-HT4(c) receptor): 3.98 nM
